According to patent US20220370418A1, “PHARMACEUTICAL COMBINATIONS COMPRISING A FURAZANOBENZIMIDAZOLES AND A CD40 AGONIST FOR USE IN THE TREATMENT OF NEOPLASTIC DISEASES” (Basilea Pharmaceutica International AG, priority 2019, published 2022):

Legend:
[1] = cited from earlier work
GL261 glioma = experiment: Survival in syngeneic orthotopic highly invasive GL261 glioma mouse model; type: in vivo, C57BL/6 mice
SB28 glioma [2] = experiment: Survival in syngeneic orthotopic SB28 glioma mouse model; type: in vivo, C57BL/6 mice
SB28 glioma [3] = experiment: Survival in syngeneic orthotopic SB28 glioma model in T- and B-cell deficient RAG1 knockout mice; type: in vivo, C57BL/6 RAG1 knockout mice
[4] = twenty-nine patients, doses from 0.01 to 0.3 mg/kg; cited from earlier work
[5] = Log-rank (Mantel-Cox) analysis, n=8-10 mice per group

Row | Compound | water solubility (in words) [1] | median survival increase versus control (GL261 glioma; GL261 intra-cranial, C57BL/6 mice, same treatment schedule as Examples 1 and 2) | survival of GL261 glioma bearing mice (in words, FIG. 3) (GL261 glioma; Log-rank (Mantel-Cox) analysis, n=10 mice per group) | median survival increase, less than measured in the combination regimen (GL261 glioma; single agent versus combination, GL261, C57BL/6 mice) | survival of SB28 glioma bearing mice (in words, FIG. 1) (SB28 glioma [2]; [5]) | median survival increase versus control (SB28 glioma [2]; SB28 intra-cranial, C57BL/6 mice, BAL101553 25 mg/kg orally daily day 5-9, 12-16, 19-23, 26-30, anti-CD40 antibody 100 μg per animal IP days 7, 12, 16) | median survival increase, less than in the combination regimen (SB28 glioma [2]; single agent versus combination, SB28, C57BL/6 mice) | survival of SB28 glioma bearing immunodeficient (RAG1 KO) mice (in words, FIG. 2) (SB28 glioma [3]; [5]) | median survival increase versus control (SB28 glioma [3]; SB28 intra-cranial, RAG1 KO mice, same treatment schedule as Example 1) | median survival increase, less than measured in the combination regimen (SB28 glioma [3]; single agent versus combination, SB28, RAG1 KO mice) | maximum tolerated dose (MTD) [4]
1 | N#CCCNc1nonc1-c1nc2ccccc2n1CC(=O)c1ccc(NC(=O)[C@@H](N)CCCCN)cc1 [BAL101553, (S)-2,6-Diamino-hexanoic acid [4-(2-{2-[4-(2-cyano-ethylamino)-furazan-3-yl]-benzoimidazol-1-yl}-acetyl)-phenyl]-amide] | highly water-soluble | 18% | do not show any significant prolongation of survival | 25% | statistically significant but smaller survival benefit than the combined regimen | 55% | 26% | statistically significant, but smaller survival benefit than the combined regimen | 33% | 23% | 
2 | CP-870,893: fully human IgG2 agonistic CD40 antibody developed by Pfizer |  |  |  |  |  |  |  |  |  |  | 0.2 mg/kg
